One assay addresses T1, Bcl-XL (Homo sapiens, UniProt Q07817).
T1 construct: a C-terminal 6×HIS tagged Bcl-XL (aa 1-209); 6xHis (C)
The assay is described as follows: Bcl-XL FP assay (competitive fluorescence polarization binding assay, FITC-Bim BH-3 peptide tracer). The settings on record: C-terminal 6×HIS tagged Bcl-XL (aa 1-209), 0.8 nM; 2 nM FITC-Bim peptide tracer. From the text: (§1) Bcl-xL and Bcl-2 FP binding affinity of compound(s) of Formulae (I), (I-a), (I-b), (I-c), (I-d) and/or (I-e) may be determined using a variety of known methods. One such assay is a sensitive and quantitative in vitro binding assay using fluorescence polarization (“FP”) described by Wang, J.-L.; Zhang, Z-J.; Choksi, S.; Sjam. S.; Lu, Z.; Croce, C. M.; Alnemri, E. S.; Komgold, R.; Huang, Z. Cell permeable Bcl-2 binding peptides: a chemical approach to apoptosis induction in tumor cells. Cancer Res. 2000, 60, 1498-1502).
(§2) Additionally, the binding affinity of compound(s) of Formulae (I), (I-a), (I-b), (I-c), (I-d) and/or (I-e) to Bcl-2 protein in vitro was determined by a competitive binding assay based on fluorescence polarization. For example, fluorescence polarization (“FP”) assays may be developed using a c-terminal 6×HIS tagged Bcl-2 (aa 1-204) and a C-terminal 6×HIS tagged Bcl-XL (aa 1-209). […] Dilutions of either Bcl-2 (1.3 nM) or Bcl-XL (0.8 nM) may be added to serial dilutions of antagonist and incubated for one hour prior to the addition of 2 nM of fluorescent peptide tracer (Anaspec, Fremont, Calif.) in the assay buffer. Final assay buffer conditions may be 20 mM HEPES, pH 7.5, 1 mM DTT, 0.005% Tween-20 and 50 mM NaCl. Samples may be read after 20-minute incubation. Fluorescence polarization values may be plotted as a function of the antagonist concentration.
Background: In fluorescence polarisation assays a small probe gives low polarisation when free and higher when bound to something large.

In the next assay the target is T2, Bcl-2 (Homo sapiens, UniProt P10415).
T2 construct: a c-terminal 6×HIS tagged Bcl-2 (aa 1-204); 6xHis (C)
The assay is described as follows: Bcl-2 FP assay (competitive fluorescence polarization binding assay, FITC-Bim BH-3 peptide tracer). The settings on record: c-terminal 6×HIS tagged Bcl-2 (aa 1-204), 1.3 nM; 2 nM FITC-Bim peptide tracer.
Text: as §1, §2

Structures can show the parent of a compound that is named as a salt.

T1 sequence (Q07817 1-209): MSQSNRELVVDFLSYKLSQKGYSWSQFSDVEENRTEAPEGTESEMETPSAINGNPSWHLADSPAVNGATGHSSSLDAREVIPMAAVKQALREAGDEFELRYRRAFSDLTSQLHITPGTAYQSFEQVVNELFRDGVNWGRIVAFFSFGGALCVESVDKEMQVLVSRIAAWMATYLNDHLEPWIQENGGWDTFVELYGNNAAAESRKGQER
T2 sequence (P10415 1-204): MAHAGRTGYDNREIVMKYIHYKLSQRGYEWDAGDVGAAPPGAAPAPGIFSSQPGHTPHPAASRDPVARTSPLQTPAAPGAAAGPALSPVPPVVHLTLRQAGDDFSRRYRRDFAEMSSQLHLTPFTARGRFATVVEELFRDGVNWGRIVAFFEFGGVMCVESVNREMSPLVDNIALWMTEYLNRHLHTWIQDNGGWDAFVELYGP

As a reminder, the IC50 is the midpoint of a concentration-inhibition curve. Low readings indicate greater potency, high ones weaker potency. As to `N[C@@H](c1ccccc1-c1ccc(Cl)cc1)C1CCN(c2ccc(C(=O)NS(=O)(=O)c3ccc(N[C@H](CCN4CCN(CCO)CC4)CSc4ccccc4)c(S(=O)(=O)C(F)(F)F)c3)cc2)CC1` [Example 13, 4-(4-((R)-amino(4′-chlorobiphenyl-2-yl)methyl)piperidin-1-yl)-N-(4-((R)-4-(4-(2-hydroxyethyl)piperazin-1-yl)-1-(phenylthio)butan-2-ylamino)-3-(trifluoromethylsulfonyl)phenylsulfonyl)benzamide, formic acid salt], the half-inhibitory concentration (IC50) at Bcl-XL was found to be 15 nM; at Bcl-2, 16 nM.
Take `O=C(NS(=O)(=O)c1ccc(N[C@H](CCN2CCOCC2)CSc2ccccc2)c(S(=O)(=O)C(F)(F)F)c1)c1ccc(N2CCC([C@H](O)c3ccccc3-c3ccc(Cl)cc3)CC2)cc1` [Example 14, 4-(4-((S)-(4′-chlorobiphenyl-2-yl)(hydroxy)methyl)piperidin-1-yl)-N-(4-((R)-4-morpholino-1-(phenylthio)butan-2-ylamino)-3-(trifluoromethylsulfonyl)phenylsulfonyl)benzamide]: the IC50 at Bcl-XL was 78 nM; at Bcl-2, 253 nM.
Taken in the same sequence, the figures for `O=C(NS(=O)(=O)c1ccc(N[C@H](CCN2CCOCC2)CSc2ccccc2)c(S(=O)(=O)C(F)(F)F)c1)c1ccc(N2CCC([C@@H](O)c3ccccc3-c3ccc(Cl)cc3)CC2)cc1` [Example 15, 4-(4-((R)-(4′-chlorobiphenyl-2-yl)(hydroxy)methyl)piperidin-1-yl)-N-(4-((R)-4-morpholino-1-(phenylthio)butan-2-ylamino)-3-(trifluoromethylsulfonyl)phenylsulfonyl)benzamide] were 1 nM and 3 nM.
The like results for `O=C(NS(=O)(=O)c1ccc(N[C@H](CCN2CCOCC2)CSc2ccccc2)c([N+](=O)[O-])c1)c1ccc(N2CCC([C@@H](O)c3ccccc3-c3ccc(Cl)cc3)CC2)cc1` [Example 16, 4-(4-((R)-(4′-chlorobiphenyl-2-yl)(hydroxy)methyl)piperidin-1-yl)-N-(4-((R)-4-morpholino-1-(phenylthio)butan-2-ylamino)-3-nitrophenylsulfonyl)benzamide] were, in that order, 1 nM and 0.8 nM.
Regarding `CCN(CC)C[C@H]1COCCN1CC[C@H](CSc1ccccc1)Nc1ccc(S(=O)(=O)NC(=O)c2ccc(N3CCC([C@@H](O)c4ccccc4-c4ccc(Cl)cc4)CC3)cc2)cc1S(=O)(=O)C(F)(F)F` [Example 20, 4-(4-((R)-(4′-chlorobiphenyl-2-yl)(hydroxy)methyl)piperidin-1-yl)-N-(4-((R)-4-((S)-3-((diethylamino)methyl)morpholino)-1-(phenylthio)butan-2-ylamino)-3-(trifluoromethylsulfonyl)phenylsulfonyl)benzamide], the results for the IC50 on Bcl-XL and on Bcl-2 were 1 nM and 0.3 nM, respectively.
The like results for `CCN(CC)C[C@@H]1COCCN1CC[C@H](CSc1ccccc1)Nc1ccc(S(=O)(=O)NC(=O)c2ccc(N3CCC([C@@H](O)c4ccccc4-c4ccc(Cl)cc4)CC3)cc2)cc1S(=O)(=O)C(F)(F)F` [Example 21, 4-(4-((R)-(4′-chlorobiphenyl-2-yl)(hydroxy)methyl)piperidin-1-yl)-N-(4-((R)-4-((R)-3-((diethylamino)methyl)morpholino)-1-(phenylthio)butan-2-ylamino)-3-(trifluoromethylsulfonyl)phenylsulfonyl)benzamide] were, in that order, 0.5 nM and 0.3 nM.
The like results for `O=C(NS(=O)(=O)c1ccc(N[C@H](CCN2CCO[C@@H](CO)C2)CSc2ccccc2)c(S(=O)(=O)C(F)(F)F)c1)c1ccc(N2CCC([C@@H](O)c3ccccc3-c3ccc(Cl)cc3)CC2)cc1` [Example 22, 4-(4-((R)-(4′-chlorobiphenyl-2-yl)(hydroxy)methyl)piperidin-1-yl)-N-(4-((R)-4-((R)-2-(hydroxymethyl)morpholino)-1-(phenylthio)butan-2-ylamino)-3-(trifluoromethylsulfonyl)phenylsulfonyl)benzamide, formic acid salt] were, in that order, 3 nM and 0.6 nM.
Taken in the same sequence, the figures for `O=C(NS(=O)(=O)c1ccc(N[C@H](CCN2CCO[C@H](CO)C2)CSc2ccccc2)c(S(=O)(=O)C(F)(F)F)c1)c1ccc(N2CCC([C@@H](O)c3ccccc3-c3ccc(Cl)cc3)CC2)cc1` [Example 23, 4-(4-((R)-(4′-chlorobiphenyl-2-yl)(hydroxy)methyl)piperidin-1-yl)-N-(4-((R)-4-((S)-2-(hydroxymethyl)morpholino)-1-(phenylthio)butan-2-ylamino)-3-(trifluoromethylsulfonyl)phenylsulfonyl)benzamide, formic acid salt] were 1 nM and 1 nM.
As to `CC(C)(C)OP(=O)(O)OCO[C@@H](c1ccccc1-c1ccc(Cl)cc1)C1CCN(c2ccc(C(=O)NS(=O)(=O)c3ccc(N[C@H](CCN4CCOCC4)CSc4ccccc4)c(S(=O)(=O)C(F)(F)F)c3)cc2)CC1` [Example 28, tert-Butyl((R)-(4′-chlorobiphenyl-2-yl)(1-(4-(4-((R)-4-morpholino-1-(phenylthio)butan-2-ylamino)-3-(trifluoromethylsulfonyl)phenylsulfonylcarbamoyl)-phenyl)piperidin-4-yl)methoxy)methyl hydrogen phosphate], the values for the IC50 on Bcl-XL and on Bcl-2 were 2 nM and 4 nM, respectively.
Taken in the same sequence, the figures for `CCOP(=O)(OCC)O[C@@H](c1ccccc1-c1ccc(Cl)cc1)C1CCN(c2ccc(C(=O)NS(=O)(=O)c3ccc(N[C@H](CCN4CCOCC4)CSc4ccccc4)c(S(=O)(=O)C(F)(F)F)c3)cc2)CC1` [Example 29, (R)-(4′-chlorobiphenyl-2-yl)(1-(4-(4-((R)-4-morpholino-1-(phenylthio)butan-2-ylamino)-3-(trifluoromethylsulfonyl)phenylsulfonylcarbamoyl)phenyl)piperidin-4-yl)methyl diethyl phosphate, hydrochloride salt] were 12 nM and 30 nM.
The like results for `COP(=O)(O)O[C@@H](c1ccccc1-c1ccc(Cl)cc1)C1CCN(c2ccc(C(=O)NS(=O)(=O)c3ccc(N[C@H](CCN4CCOCC4)CSc4ccccc4)c(S(=O)(=O)C(F)(F)F)c3)cc2)CC1` [Example 30, (R)-(4′-chlorobiphenyl-2-yl)(1-(4-(4-((R)-4-morpholino-1-(phenylthio)butan-2-ylamino)-3-(trifluoromethylsulfonyl)phenylsulfonylcarbamoyl)phenyl)piperidin-4-yl)methyl methyl hydrogen phosphate, hydrochloride salt] were, in that order, 1 nM and 1 nM.
Regarding `N[C@@H](c1ccccc1-c1ccc(Cl)cc1)C1CCN(c2ccc(C(=O)NS(=O)(=O)c3ccc(N[C@H](CCN4CCOCC4)CSc4ccccc4)c(S(=O)(=O)C(F)(F)F)c3)cc2)CC1` [Example 33, 4-(4-((R)-amino(4′-chlorobiphenyl-2-yl)methyl)piperidin-1-yl)-N-(4-((R)-4-morpholino-1-(phenylthio)butan-2-ylamino)-3-(trifluoromethylsulfonyl)phenylsulfonyl)benzamide, formic acid salt], the IC50 on Bcl-XL came out at 33 nM; on Bcl-2, 30 nM.
The like results for `CNCC(=O)N[C@@H](c1ccccc1-c1ccc(Cl)cc1)C1CCN(c2ccc(C(=O)NS(=O)(=O)c3ccc(N[C@H](CCN4CCOCC4)CSc4ccccc4)c(S(=O)(=O)C(F)(F)F)c3)cc2)CC1` [Example 34, 4-(4-((R)-(4′-chlorobiphenyl-2-yl)(2-(methylamino)acetamido)methyl)piperidin-1-yl)-N-(4-((R)-4-morpholino-1-(phenylthio)butan-2-ylamino)-3-(trifluoromethylsulfonyl)phenylsulfonyl)benzamide, hydrochloride salt] were, in that order, 19 nM and 27 nM.
Taken in the same sequence, the figures for `NCC(=O)N[C@@H](c1ccccc1-c1ccc(Cl)cc1)C1CCN(c2ccc(C(=O)NS(=O)(=O)c3ccc(N[C@H](CCN4CCOCC4)CSc4ccccc4)c(S(=O)(=O)C(F)(F)F)c3)cc2)CC1` [Example 35, 4-(4-((R)-(2-aminoacetamido)(4′-chlorobiphenyl-2-yl)methyl)piperidin-1-yl)-N-(4-((R)-4-morpholino-1-(phenylthio)butan-2-ylamino)-3-(trifluoromethylsulfonyl)phenylsulfonyl)benzamide hydrochloride salt] were 22 nM and 38 nM.
The like results for `CN(C)[C@@H](c1ccccc1-c1ccc(Cl)cc1)C1CCN(c2ccc(C(=O)NS(=O)(=O)c3ccc(N[C@H](CCN4CCOCC4)CSc4ccccc4)c(S(=O)(=O)C(F)(F)F)c3)cc2)CC1` [Example 36, 4-(4-((R)-(4′-chlorobiphenyl-2-yl)(dimethylamino)methyl)piperidin-1-yl)-N-(4-((R)-4-morpholino-1-(phenylthio)butan-2-ylamino)-3-(trifluoromethylsulfonyl)phenylsulfonyl)benzamide, hydrochloride salt] were, in that order, 18 nM and 24 nM.

The values above are taken from patent publication US20130310344A1, “N-ACYLSULFONAMIDE APOPTOSIS PROMOTERS” (ASTRAZENECA AB, priority 2010, published 2013).
